Measurements reported in patent publication US6858741B2, “Alkyl-dihalogenated phenyl-substituted ketoenols useful as pesticides and herbicides” (Bayer Aktiengesellschaft, priority 1995, dated 2005).

What was measured:
[1] = system: resistant Boophilus microplus, SP resistant Parkhurst strain; assay: Test with resistant Boophilus microplus / SP resistant Parkhurst strain; format: in vivo; settings: active compound concentration 20 μg/animal; injected into the abdomen
Description: [table] 20 mg of active compound are dissolved in 1 ml of dimethyl sulphoxide, and lesser concentrations are prepared by dilution with the same solvent. The test is carried out in 5 applications. 1 μl of the solutions is injected into the abdomen, and the animals are transferred into dishes and kept in a controlled-environment cabinet. The activity is determined via the inhibition of oviposition. 100% means that no tick has produced eggs.

fly larvae = assay: Test with fly larvae/development-inhibitory action; format: in vivo; settings: active compound concentration 1000 ppm
Description: [table] To produce a suitable formulation, 3 parts by weight of active compound are mixed with 7 parts of the abovementioned solvent/emulsifier mixture, and the resulting emulsion concentrate is diluted with water to the concentration desired in each case. For each concentration, 30 to 50 larvae are transferred to horsemeat (1 cm^3) located in glass tubes and 500 μl of the test dilution are pipetted onto the meat. The glass tubes are placed into plastic beakers whose bottom is covered with sea sand and kept in a control-environment cabinet (26° C.±1.5° C., 70% relative humidity±10%). The activity is checked after 24 hours and 48 hours (larvicidal action). After the larvae have left the glass tubes (approximately 72 hours), the tubes are removed, and perforated plastic lids are placed on the beakers. After 1½ times the development period (hatching of the control flies), the hatched flies and the pupae/puparia are counted. The criterion for the action is death in the treated larvae after 48 hours (larvicidal effect) or inhibition of adults hatching from the pupae or inhibition of pupation. The criterion for the in-vitro action of a substance is the inhibition of fly development or a standstill of development prior to the adult stage. 100% larvicidal activity means that all larvae have died after 48 hours. 100% development-inhibitory activity means that no adult flies have hatched.

[2] = system: green peach aphid (Myzus persicae); assay: Myzus test; format: in vivo; settings: after 6 days; active compound concentration 0.1%; dipped cabbage leaves
Description: [table] To produce a suitable preparation of active compound, 1 part by weight of active compound is mixed with the stated amount of solvent and the stated amount of emulsifier, and the concentrate is diluted with water to the desired concentration. Cabbage leaves (Brassica oleracea) which are severely infested with the green peach aphid (Myzus persicae) are treated by being dipped into the preparation of active compound of the desired concentration. After the specified period of time, the destruction in % is determined. 100% means that all the aphids have been killed; 0% means that none of the aphids have been killed.

[3] = system: mustard beetle larvae (Phaedon cochleariae); assay: Phaedon larvae test; format: in vivo; settings: after 7 days; active compound concentration 0.1%; dipped cabbage leaves
Description: (§1) [table] To produce a suitable preparation of active compound, 1 part by weight of active compound is mixed with the stated amount of solvent and the stated amount of emulsifier, and the concentrate is diluted with water to the desired concentration. Cabbage leaves (Brassica oleracea) are treated by being dipped into the preparation of the active compound of the desired concentration and are infested with mustard beetle larvae (Phaedon cochleariae) while the leaves are still moist. After the specified period of time, the destruction in % is determined. 100% means that all the beetle larvae have been killed; 0% means that none of the beetle larvae have been killed.

[4] = system: greenhouse red spider mite or two-spotted spider-mite (Tetranychus urticae); assay: Tetranychus test (OP-resistant/immersion treatment); format: in vivo; settings: after 13 days; active compound concentration 0.1%; immersion treatment of bean plants
Description: (§2) [table] To produce a suitable preparation of active compound, 1 part by weight of active compound is mixed with the stated amount of solvent and the stated amount of emulsifier, and the concentrate is diluted with water to the desired concentrations. Bean plants (Phaseolus vulgaris) which are severely infested with all development stages of the greenhouse red spider mite or two-spotted spider-mite (Tetranychus urticae) are immersed in a preparation of active compound of the desired concentration. After the specified period of time, the destruction in % is determined. 100% means that all the spider mites have been killed; 0% means that none of the spider mites have been killed.

test plants [5] = assay: Pre-emergence test/greenhouse; format: in vivo; settings: greenhouse, 250 g/ha, rated after three weeks vs untreated control, 0%=no action, 100%=total destruction
Description: [table] To produce a suitable preparation of active compound, 1 part by weight of active compound is mixed with the stated amount of solvent, the stated amount of emulsifier is added and the concentrate is diluted with water to the desired concentration. Seeds of the test plants are sown in normal soil and, after 24 hours, watered with the preparation of the active compound. It is expedient to keep constant the amount of water per unit area The concentration of the active compound in the preparation is of no importance, only the amount of active compound applied per unit area being decisive. After three weeks, the degree of damage to the plants is rated in % damage in comparison to the development of the untreated control. The figures denote: • 0%=no action (like untreated control) 100%=total destruction [table]

[6] = system: greenhouse red spider mite or two-spotted spider-mite (Tetranychus urticae); assay: Tetranychus test (OP-resistant/spray treatment); format: in vivo; settings: after 7 days; active compound concentration 0.004%; spray treatment of bean plants
Description: as §2, with “sprayed with” for “immersed in”

test plants [7] = assay: Post-emergence test; format: in vivo; settings: post-emergence (footnote *); 250 g/ha; rated after three weeks vs untreated control; 0%=no action, 100%=total destruction
[8] = system: caterpillars of the fall armyworm (Spodoptera frugiperda); assay: Spodoptera test; format: in vivo; settings: after 7 days; active compound concentration 0.1%; dipped cabbage leaves
Description: as §1, with “preparation of active compound” for “preparation of the active compound”, “infested with caterpillars of the fall armyworm (Spodoptera frugiperda) while the” for “infested with mustard beetle larvae (Phaedon cochleariae) while the”, “all the caterpillars have been” for “all the beetle larvae have been”, “of the caterpillars have been” for “of the beetle larvae have been”

[9] = system: caterpillars of the diamond-back moth (Plutella maculipennis); assay: Plutella test; format: in vivo; settings: after 7 days; active compound concentration 0.1%; dipped cabbage leaves
Description: as §1, with “preparation of active compound” for “preparation of the active compound”, “infested with caterpillars of the diamond-back moth (Plutella maculipennis) while the” for “infested with mustard beetle larvae (Phaedon cochleariae) while the”, “all the caterpillars have been” for “all the beetle larvae have been”, “of the caterpillars have been” for “of the beetle larvae have been”

[10] = system: green rice leafhopper (Nephotettix cincticeps); assay: Nephotettix test; format: in vivo; settings: after 6 days; active compound concentration 0.1%; dipped rice seedlings
Description: [table] To produce a suitable preparation of active compound, 1 part by weight of active compound is mixed with the stated amount of solvent and the stated amount of emulsifier, and the concentrate is diluted with water to the desired concentration. Rice seedlings (Oryza sativa) are treated by being dipped into the preparation of active compound of the desired concentration and are infested with the green rice leafhopper (Nephotettix cincticeps) while the seedlings are still moist. After the specified period of time, the destruction in % is determined. 100% means that all the leafhoppers have been killed; 0% means that none of the leafhoppers have been killed.

In the case of `Cc1cc(Cl)cc(Cl)c1C1=C(OC(=O)C(C)C)C2(CCCC(C)C2)NC1=O` (single isomer, unassigned) [Example I-1-b-3], the “activity (inhibition of oviposition)” value [1] is reported as 100% and the “activity (larvicidal / development-inhibitory)” value (fly larvae) is reported as 100%.

Compound `Cc1cc(Cl)c(C2=C(O)C3(CCCCC3)OC2=O)c(Cl)c1` [Example I-2-a-5] has a destruction [2] of 100%.

`Cc1cc(Cl)cc(Cl)c1C1=C(O)C2(CCCCC2)OC1=O` [Example I-2-a-1, 3-(2,4-dichloro-6-methyl-phenyl)-5-spirocyclohexyltetronic acid] gave a melting point greater than 240 °C.

With `CC(=O)OC1=C(c2c(C)cc(Cl)cc2Cl)C(=O)NC12CCCCC2` [Example I-1-b-7] the destruction [3] was 100%, the “activity (destruction)” value [4] was 100% and the “degree of damage, Alopecurus myosuroides” value (test plants [5]) was 95%. For the same compound, the “degree of damage, Avena fatua” value (test plants [5]) was 80%, the “degree of damage, Beta vulgaris” value (test plants [5]) was 30% and the “degree of damage, Setaria viridis” value (test plants [5]) was 100%. The “degree of damage, Sinapis arvensis” value (test plants [5]) was 100% and the destruction [2] was 100%.

In the case of `Cc1cc(Cl)cc(Cl)c1C1=C(OC(=O)C(C)(C)C)C2(CCCCC2)OC1=O` [Example I-2-b-1, 4-pivaloyl-oxy-3-(2,4-dichloro-6-methyl-phenyl)-5-spiro-cyclohexyl-tetronic acid], the “activity (destruction)” value [6] is reported as 100% and the melting point is reported as 137 °C.

With `Cc1cc(Cl)c(C2=C(O)C3(CCC(C)CC3)OC2=O)c(Cl)c1` (stereo not shown) [Example I-2-a-6] the destruction [3] was 100%, the destruction [2] was 100% and the “activity (inhibition of oviposition)” value [1] was 100%. The “activity (larvicidal / development-inhibitory)” value (fly larvae) was 100%.

In the case of `Cc1cc(Cl)cc(Cl)c1-c1c(O)c(C)c(-c2ccccn2)oc1=O` [Example I-5-a-1], the “degree of damage, Alopecurus myosuroides” value (test plants [7]) is reported as 80%, the “degree of damage, Beta vulgaris” value (test plants [7]) is reported as 0% and the “degree of damage, Alopecurus myosuroides” value (test plants [5]) is reported as 80%. For the same compound, the “degree of damage, Beta vulgaris” value (test plants [5]) was 0%.

Work on `Cc1cc(Cl)cc(Cl)c1C1=C(OC(=O)c2ccccc2)C2(CCCC(C)C2)NC1=O` (single isomer, unassigned) [Example I-1-b-5] yielded a destruction [8] of 100%.

In the case of `Cc1cc(Cl)cc(Cl)c1C1=C(O)C(C)(C(C)C)NC1=O` (stereo not shown) [Example I-1-a-1], the destruction [9] is reported as 100%, the destruction [2] is reported as 100% and the destruction [10] is reported as 100%.

For `Cc1cc(Cl)cc(Cl)c1C1=C(O)C2(CCOCC2)NC1=O` [Example I-1-a-5], the “activity (inhibition of oviposition)” value [1] was 100% and the “activity (larvicidal / development-inhibitory)” value (fly larvae) was 100%.
